{"source": "patent US20250359576A1", "about": "“THEANINE-CONTAINING COMPOSITION” (TAIYO KAGAKU Co., Ltd., priority 2024, published 2025)", "key": {"[1]": {"test_system": "panelists", "experiment": "Test Example 4: three-point discrimination sensory evaluation of organic nitrogen compound alone without theanine", "type": "in vivo", "details": "compound alone in deionized water without theanine; 5 ppm test solution; eight panelists; binomial test, p<0.10", "experimental": "Organic nitrogen compound B was added to deionized water (i.e. not containing theanine) to prepare solutions containing 0 (control), 5, 50, and 100 ppm of organic nitrogen compound B.\nIn other words, […] of organic nitrogen compound B was dissolved in 1000 mL of deionized water (control) to make a 100 ppm solution. 150 mL of deionized water was added to 150 mL of the 100 ppm organic nitrogen compound B solution to make a 50 ppm organic nitrogen compound B solution.\n20 mL of the 50 ppm organic nitrogen compound B solution was mixed with 180 mL of deionized water to make a 5 ppm organic nitrogen compound B solution.\nA three-point discrimination sensory evaluation was conducted by eight panelists. Bitterness was used as the evaluation category. […] The panelists were asked to select solution(s) that they felt was (were) bitter. Analysis was performed using a binomial test. In the statistical analysis, a significance level of 10% (p<0.10) was used as the threshold for statistical significance."}, "[2]": {"test_system": "panelists", "experiment": "Test Example 3: sensory evaluation of unpleasant taste (off-flavor) at high concentrations, upper limit", "type": "in vivo", "details": "six panelists", "experimental": "Solutions containing theanine (Taiyo Kagaku Co., Ltd.: Suntheanine (registered trademark) U001) were prepared to contain 0 (control), 100, 500, 1000, 5000, and 10000 ppm of organic nitrogen compound A or C.\nMore specifically, 1996 mL of deionized water was added to 4 g of theanine, to prepare the theanine control solution (2 mg/mL theanine solution). 10000 ppm organic nitrogen compound solutions were prepared by adding […] of theanine control solution to 10 g of each organic nitrogen compound A and C.\n150 mL of theanine control solution was added to 150 mL of each of the 10000 ppm organic nitrogen compound solutions to prepare 5000 ppm organic nitrogen compound solutions.\n180 mL of theanine control solution was added to 20 mL of each of 10000 ppm organic nitrogen compound solutions to prepare 1000 ppm organic nitrogen compound solutions.\n180 mL of theanine control solution was added to 20 mL of each of the 5000 ppm organic nitrogen compound solutions to prepare 500 ppm organic nitrogen compound solutions.\n180 mL of theanine control solution was added to 20 mL of each of the 1000 ppm organic nitrogen compound solutions to prepare 100 ppm organic nitrogen compound solutions.\nSimilar solutions were also prepared for organic nitrogen compound C.\nA sensory (taste) evaluation was conducted by six panelists. The evaluation category was unpleasant taste, which was considered to be an off-flavor."}}}
{"compound": "CCNC=O", "note": "[organic nitrogen compound B, ethylformamide]", "values": [{"measurement": "bitterness, three-point discrimination vs deionized water", "setting": "[1]", "result": "no significant difference"}]}
{"compound": "CC(N)=O", "note": "[organic nitrogen compound C, acetamide]", "values": [{"measurement": "panelists who noticed an unpleasant taste", "setting": "[2]; 100-500 ppm in 2 mg/mL theanine solution", "result": "one of six panelists"}, {"measurement": "panelists who noticed an unpleasant taste", "setting": "[2]; 1000-5000 ppm in 2 mg/mL theanine solution", "result": "two of six panelists"}, {"measurement": "panelists who noticed an unpleasant taste", "setting": "[2]; 10000 ppm in 2 mg/mL theanine solution", "result": "all panelists"}]}
